Article PMC5196007 (Journal of pharmaceutical and biomedical analysis, 2016)
Read-outs that look alike come from different tables or passages of the source.

Experiments:
[1] = Stability of analytes in whole blood samples; format: in vitro ADME, rat; details: n = 6
[2] = Pharmacokinetic study with co-administration of cocaine and alcohol in rats; format: in vivo, Male Sprague–Darley rats; details: 60 mg/kg cocaine IP, 30 min after 1 g/kg alcohol or saline IP, both groups
CE-1 = details: with alcohol co-administration, cited from earlier work
[3] = tested on: butyrylcholinesterase (BChE) and liver carboxyesterase-2 (CE-2); details: in humans; cited from earlier work
[4] = Bench top (4 hours, room temperature), high concentration 190–320 ng/ml (1 µM)
[5] = Bench top (4 hours, room temperature), low concentration 1.9–3.2 ng/ml (0.01 µM)
[6] = Bench top (4 hours, room temperature), medium concentration 95–160 ng/ml (0.5 µM)
[7] = Freeze-thaw (4 cycles), high concentration 190–320 ng/ml (1 µM)
[8] = Freeze-thaw (4 cycles), low concentration 1.9–3.2 ng/ml (0.01 µM)
[9] = Freeze-thaw (4 cycles), medium concentration 95–160 ng/ml (0.5 µM)
[10] = Long-term (−70°C, 4 months), high concentration 190–320 ng/ml (1 µM)
[11] = Long-term (−70°C, 4 months), low concentration 1.9–3.2 ng/ml (0.01 µM)
[12] = Long-term (−70°C, 4 months), medium concentration 95–160 ng/ml (0.5 µM)

| SMILES | Stability Bias (%) [1, 4] | Stability Bias (%) [1, 5] | Stability Bias (%) [1, 6] | Stability Bias (%) [1, 7] | Stability Bias (%) [1, 8] | Stability Bias (%) [1, 9] | Stability Bias (%) [1, 10] | Stability Bias (%) [1, 11] | Stability Bias (%) [1, 12] | highest blood concentration [2] | time of highest blood concentration after the injection of cocaine [2] | fraction of cocaine converted to cocaethylene through transesterification (CE-1; intravenous cocaine) | fraction of cocaine converted to cocaethylene through transesterification (CE-1; oral cocaine) | fraction of cocaine converted to cocaethylene through transesterification (CE-1; smoked cocaine) | fraction of cocaine hydrolyzed to ecgonine methyl ester (EME) [3] |
| --- | --- | --- | --- | --- | --- | --- | --- | --- | --- | --- | --- | --- | --- | --- | --- |
| CN1[C@H]2CC[C@@H]1[C@@H](C(=O)O)[C@@H](OC(=O)c1ccccc1)C2 [BE, benzoylecgonine] | 1.7% | −0.5% | 0.7% | 3.4% | −0.9% | 5.5% | 3.8% | −1.4% | 2.2% |  |  |  |  |  |  |
| CCOC(=O)[C@@H]1C2CCC(C[C@@H]1OC(=O)c1ccccc1)N2C (stereo partly drawn) [Cocaethylene, cocaethylene] | 0.2% | 1.7% | −2.1% | −4.1% | 0.7% | −3.7% | −0.6% | 3.7% | −1.8% |  |  |  |  |  |  |
| COC(=O)[C@H]1[C@@H](OC(=O)c2ccccc2)C[C@@H]2CC[C@H]1N2C [Cocaine] | −6.7% | 2.3% | 0.3% | −4.7% | 2.8% | −0.7% | −3.1% | −0.4% | 3.1% | ~ 2400 ng/ml | 20 min | ~ 24% | ~ 34% | ~ 18% | approximately 40% |
| CCOC(=O)[C@@H]1[C@H]2CC[C@@H](C[C@@H]1O)N2C [EEE, ecgonine ethyl ester] | 6.8% | 1.2% | −4.4% | 9.4% | −3.2% | −9.3% | −5.2% | −2.2% | −5.2% |  |  |  |  |  |  |
| COC(=O)[C@@H]1[C@H]2CC[C@@H](C[C@@H]1O)N2C [EME, ecgonine methyl ester] | 0.3% | −9.6% | 5.9% | 4.0% | 2.1% | 4.2% | 3.5% | −3.1% | 6.3% |  |  |  |  |  |  |
| CCOC(=O)[C@H]1[C@@H](O)C[C@@H]2CC[C@H]1N2 [NEEE, norecgonine ethyl ester] | 3.7% | 1.4% | 2.4% | 6.5% | 1.2% | 3.3% | −11.9% | −1.3% | −0.2% |  |  |  |  |  |  |
| COC(=O)[C@H]1[C@@H](O)C[C@@H]2CC[C@H]1N2 [NEME, norecgonine methyl ester] | −2.2% | −14.3% | −1.5% | 0.1% | −12.8% | −5.4% | −8.7% | −13.0% | −1.7% |  |  |  |  |  |  |
| CCOC(=O)[C@H]1[C@@H](OC(=O)c2ccccc2)C[C@@H]2CC[C@H]1N2 [Norcocaethylene, norcocaethylene] | −2.2% | −0.2% | −0.9% | −6.4% | 0.1% | −4.4% | 2.8% | −1.0% | −1.3% |  |  |  |  |  |  |
| COC(=O)[C@H]1[C@@H](OC(=O)c2ccccc2)C[C@@H]2CC[C@H]1N2 [Norcocaine, norcocaine] | 0.6% | −1.1% | 3.5% | −1.2% | −1.0% | −0.2% | −1.4% | −2.9% | 2.2% |  |  |  |  |  |  |
